Key:
[1] = target: T1, hRPS6KA5(Kin.Dom.1-N-term) (Homo sapiens, UniProt O75582); assay: KINOMEscan; assay type: binding
T1 construct: hRPS6KA5(Kin.Dom.1-N-term); purchased DiscoverX (KINOMEscan platform)

hTAOK3 = target: T2, hTAOK3 (Homo sapiens, UniProt Q9H2K8); assay: KINOMEscan; assay type: binding
T2 construct: purchased DiscoverX

hABL1 = target: T3, hABL1 (Homo sapiens, UniProt P00519); assay: KINOMEscan; assay type: binding
T3 construct: purchased DiscoverX (KINOMEscan platform)

hGAK = target: T4, hGAK (Homo sapiens, UniProt O14976); assay: KINOMEscan; assay type: binding
T4 construct: purchased DiscoverX
T4 sequence (O14976 whole entry): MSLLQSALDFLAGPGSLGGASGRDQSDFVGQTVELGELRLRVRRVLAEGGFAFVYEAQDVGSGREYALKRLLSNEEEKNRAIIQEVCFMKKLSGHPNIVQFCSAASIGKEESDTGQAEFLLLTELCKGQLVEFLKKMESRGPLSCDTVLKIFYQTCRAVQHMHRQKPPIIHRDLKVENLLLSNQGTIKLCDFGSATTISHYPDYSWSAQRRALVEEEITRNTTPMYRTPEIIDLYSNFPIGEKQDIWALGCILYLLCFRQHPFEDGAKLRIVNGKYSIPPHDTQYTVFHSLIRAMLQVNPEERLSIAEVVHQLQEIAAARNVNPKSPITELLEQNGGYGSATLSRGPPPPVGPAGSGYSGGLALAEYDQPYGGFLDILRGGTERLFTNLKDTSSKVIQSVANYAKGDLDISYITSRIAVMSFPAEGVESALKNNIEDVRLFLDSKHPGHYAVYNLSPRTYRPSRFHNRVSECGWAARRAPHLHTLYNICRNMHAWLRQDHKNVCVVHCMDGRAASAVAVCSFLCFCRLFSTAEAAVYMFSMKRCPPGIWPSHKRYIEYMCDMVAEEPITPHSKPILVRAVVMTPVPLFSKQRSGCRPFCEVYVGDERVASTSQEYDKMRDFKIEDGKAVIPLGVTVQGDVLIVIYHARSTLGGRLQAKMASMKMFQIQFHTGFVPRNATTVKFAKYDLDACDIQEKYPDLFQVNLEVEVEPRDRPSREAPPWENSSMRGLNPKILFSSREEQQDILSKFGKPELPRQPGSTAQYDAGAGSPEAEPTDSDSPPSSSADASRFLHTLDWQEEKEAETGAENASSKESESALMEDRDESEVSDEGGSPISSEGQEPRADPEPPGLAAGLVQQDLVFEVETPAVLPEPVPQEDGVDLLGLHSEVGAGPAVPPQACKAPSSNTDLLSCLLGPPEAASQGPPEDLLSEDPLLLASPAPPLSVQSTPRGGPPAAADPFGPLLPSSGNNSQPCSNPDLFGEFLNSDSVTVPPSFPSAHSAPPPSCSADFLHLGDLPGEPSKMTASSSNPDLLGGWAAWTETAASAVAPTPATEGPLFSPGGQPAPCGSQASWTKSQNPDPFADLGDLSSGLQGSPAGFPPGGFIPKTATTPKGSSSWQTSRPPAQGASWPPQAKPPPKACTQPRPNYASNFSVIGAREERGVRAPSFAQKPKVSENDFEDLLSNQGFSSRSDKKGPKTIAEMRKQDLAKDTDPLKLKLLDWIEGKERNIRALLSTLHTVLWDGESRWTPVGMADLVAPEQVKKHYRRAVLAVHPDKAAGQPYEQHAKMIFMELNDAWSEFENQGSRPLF

hMERTK = target: T5, hMERTK (Homo sapiens, UniProt Q12866); assay: KINOMEscan; assay type: binding
T5 construct: purchased DiscoverX

hFLT3(D835Y) = target: T6, hFLT3(D835Y) (Homo sapiens, UniProt P36888, D835Y); assay: KINOMEscan; assay type: binding
T6 construct: purchased DiscoverX

h5HT2B = h5HT2B (Homo sapiens, UniProt P41595); assay: Calcium Mobilization Antagonist (Eurofins-CEREP); conditions: read-out: % Effect, Inhibition
Chain of h5HT2B (P41595 whole entry): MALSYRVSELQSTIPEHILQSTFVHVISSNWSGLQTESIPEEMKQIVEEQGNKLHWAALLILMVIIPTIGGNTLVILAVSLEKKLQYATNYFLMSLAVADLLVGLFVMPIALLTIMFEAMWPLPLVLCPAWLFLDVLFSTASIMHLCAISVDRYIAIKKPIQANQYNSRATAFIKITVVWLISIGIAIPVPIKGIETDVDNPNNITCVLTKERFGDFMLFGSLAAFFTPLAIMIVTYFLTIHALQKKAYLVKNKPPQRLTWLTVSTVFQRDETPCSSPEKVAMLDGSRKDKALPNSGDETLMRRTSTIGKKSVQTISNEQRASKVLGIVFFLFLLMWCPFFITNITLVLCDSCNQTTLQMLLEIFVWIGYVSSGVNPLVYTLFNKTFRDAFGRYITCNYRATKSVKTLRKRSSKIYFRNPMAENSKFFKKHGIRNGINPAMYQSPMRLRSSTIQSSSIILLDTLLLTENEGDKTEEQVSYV

hSTK39 = target: T7, hSTK39 (Homo sapiens, UniProt Q9UEW8); assay: KINOMEscan; assay type: binding
T7 construct: purchased DiscoverX (KINOMEscan platform)

hEGFR(E746-A750del) = target: T8, hEGFR(E746-A750del) (Homo sapiens, UniProt P00533, DEL746-750); assay: KINOMEscan; assay type: binding
T8 construct: purchased DiscoverX

hADRα1A = target: T9, hADRα1A (Homo sapiens, UniProt P35348); assay: Calcium Mobilization Antagonist (Eurofins-CEREP); conditions: read-out: % Effect, Inhibition
T9 sequence (P35348 1-466): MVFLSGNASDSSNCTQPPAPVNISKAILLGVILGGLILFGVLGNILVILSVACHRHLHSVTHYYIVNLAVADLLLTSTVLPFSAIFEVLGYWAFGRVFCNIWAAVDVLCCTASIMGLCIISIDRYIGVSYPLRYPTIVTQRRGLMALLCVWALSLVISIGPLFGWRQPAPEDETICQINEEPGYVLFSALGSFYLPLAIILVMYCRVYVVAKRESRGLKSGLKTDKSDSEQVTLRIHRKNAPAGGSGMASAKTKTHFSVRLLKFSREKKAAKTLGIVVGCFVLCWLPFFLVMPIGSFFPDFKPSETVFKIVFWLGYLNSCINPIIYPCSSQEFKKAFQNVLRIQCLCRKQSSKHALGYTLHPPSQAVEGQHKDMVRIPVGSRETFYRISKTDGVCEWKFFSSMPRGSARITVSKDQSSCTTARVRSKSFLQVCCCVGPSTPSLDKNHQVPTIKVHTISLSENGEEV

hWNK3 = target: T10, hWNK3 (Homo sapiens, UniProt Q9BYP7); assay: KINOMEscan; assay type: binding
T10 construct: purchased DiscoverX

hIRAK1 = target: T11, hIRAK1 (Homo sapiens, UniProt P51617); assay: KINOMEscan; assay type: binding
T11 construct: purchased DiscoverX (KINOMEscan panel)

hCSNK1G2 = target: T12, hCSNK1G2 (Homo sapiens, UniProt P78368); assay: KINOMEscan; assay type: binding
T12 construct: purchased DiscoverX (KINOMEscan platform)

hALK(L1196M) = target: T13, hALK(L1196M) (Homo sapiens, UniProt Q9UM73, L1196M); assay: KINOMEscan; assay type: binding
T13 construct: purchased DiscoverX

hQSK = target: T14, hQSK (Homo sapiens, UniProt Q9Y2K2); assay: KINOMEscan; assay type: binding
T14 construct: purchased DiscoverX (KINOMEscan platform)
T14 sequence (Q9Y2K2 whole entry): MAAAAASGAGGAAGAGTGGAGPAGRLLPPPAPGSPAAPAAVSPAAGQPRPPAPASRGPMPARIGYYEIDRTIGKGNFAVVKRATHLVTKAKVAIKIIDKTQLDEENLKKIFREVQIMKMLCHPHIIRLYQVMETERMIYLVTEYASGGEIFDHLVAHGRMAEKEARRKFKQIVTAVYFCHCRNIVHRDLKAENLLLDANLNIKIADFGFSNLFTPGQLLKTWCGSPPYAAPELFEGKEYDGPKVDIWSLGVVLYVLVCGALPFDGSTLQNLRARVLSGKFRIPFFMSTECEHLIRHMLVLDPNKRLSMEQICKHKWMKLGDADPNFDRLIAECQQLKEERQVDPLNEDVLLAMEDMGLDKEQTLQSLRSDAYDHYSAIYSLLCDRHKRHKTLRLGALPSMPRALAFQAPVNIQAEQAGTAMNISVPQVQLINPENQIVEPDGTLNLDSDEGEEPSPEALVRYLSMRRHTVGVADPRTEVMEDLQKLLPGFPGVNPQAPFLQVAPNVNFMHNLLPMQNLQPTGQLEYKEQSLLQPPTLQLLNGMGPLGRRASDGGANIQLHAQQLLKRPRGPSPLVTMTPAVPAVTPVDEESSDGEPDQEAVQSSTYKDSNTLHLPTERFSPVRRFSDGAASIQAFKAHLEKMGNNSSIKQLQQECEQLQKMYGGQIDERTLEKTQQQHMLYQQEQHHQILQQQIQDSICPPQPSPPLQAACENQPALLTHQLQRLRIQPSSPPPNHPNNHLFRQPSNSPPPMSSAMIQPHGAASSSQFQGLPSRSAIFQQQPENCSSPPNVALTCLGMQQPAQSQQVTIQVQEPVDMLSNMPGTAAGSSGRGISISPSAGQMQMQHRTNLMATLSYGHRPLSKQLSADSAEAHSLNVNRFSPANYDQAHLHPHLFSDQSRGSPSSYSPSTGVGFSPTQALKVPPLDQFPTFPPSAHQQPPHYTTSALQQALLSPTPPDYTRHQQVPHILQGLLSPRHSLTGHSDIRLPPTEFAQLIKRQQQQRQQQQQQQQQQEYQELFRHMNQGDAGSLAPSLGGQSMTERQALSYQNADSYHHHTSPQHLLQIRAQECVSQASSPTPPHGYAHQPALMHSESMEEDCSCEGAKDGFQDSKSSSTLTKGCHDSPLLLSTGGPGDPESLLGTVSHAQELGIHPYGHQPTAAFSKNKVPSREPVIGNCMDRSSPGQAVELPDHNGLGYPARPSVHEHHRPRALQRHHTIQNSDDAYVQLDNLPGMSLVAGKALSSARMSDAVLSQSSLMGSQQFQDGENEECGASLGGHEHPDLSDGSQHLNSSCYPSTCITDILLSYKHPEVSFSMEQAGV

hZAK = target: T15, hZAK (Homo sapiens, UniProt Q9NYL2); assay: KINOMEscan; assay type: binding
T15 construct: purchased DiscoverX

hIKK-alpha = target: T16, hIKK-alpha (Homo sapiens, UniProt O15111); assay: KINOMEscan; assay type: binding
T16 construct: purchased DiscoverX (KINOMEscan panel)

hSGK = target: T17, hSGK (Homo sapiens, UniProt O00141); assay: KINOMEscan; assay type: binding
T17 construct: purchased DiscoverX (KINOMEscan platform)

hCSNK2A2 = target: T18, hCSNK2A2 (Homo sapiens, UniProt P19784); assay: KINOMEscan; assay type: binding
T18 construct: purchased DiscoverX (KINOMEscan platform)

hKIT(A829P) = target: T19, hKIT(A829P) (Homo sapiens, UniProt P10721, A829P); assay: KINOMEscan; assay type: binding
T19 construct: purchased DiscoverX (KINOMEscan panel)

hIRAK4 = target: T20, hIRAK4 (Homo sapiens, UniProt Q9NWZ3); assay: KINOMEscan; assay type: binding
T20 construct: purchased DiscoverX (KINOMEscan panel)

hFAK = target: T21, hFAK (Homo sapiens, UniProt Q05397); assay: KINOMEscan; assay type: binding
T21 construct: purchased DiscoverX

hGSK3A = target: T22, hGSK3A (Homo sapiens, UniProt P49840); assay: KINOMEscan; assay type: binding
T22 construct: purchased DiscoverX

hMAP4K2 = target: T23, hMAP4K2 (Homo sapiens, UniProt Q12851); assay: KINOMEscan; assay type: binding
T23 construct: purchased DiscoverX (KINOMEscan platform)

hEGFR(S752-I759del) = target: T24, hEGFR(S752-I759del) (Homo sapiens, UniProt P00533, DEL752-759); assay: KINOMEscan; assay type: binding
T24 construct: purchased DiscoverX

hLIMK2 = target: T25, hLIMK2 (Homo sapiens, UniProt P53671); assay: KINOMEscan; assay type: binding
T25 construct: purchased DiscoverX (KINOMEscan platform)

hMEK4 = target: T26, hMEK4 (Homo sapiens, UniProt P45985); assay: KINOMEscan; assay type: binding
T26 construct: purchased DiscoverX

hFER = target: T27, hFER (Homo sapiens, UniProt P16591); assay: KINOMEscan; assay type: binding
T27 construct: purchased DiscoverX

hDDR1 = target: T28, hDDR1 (Homo sapiens, UniProt Q08345); assay: KINOMEscan; assay type: binding
T28 construct: purchased DiscoverX (KINOMEscan platform)

hTNK2 = target: T29, hTNK2 (Homo sapiens, UniProt Q07912); assay: KINOMEscan; assay type: binding
T29 construct: purchased DiscoverX

hLTK = target: T30, hLTK (Homo sapiens, UniProt P29376); assay: KINOMEscan; assay type: binding
T30 construct: purchased DiscoverX (KINOMEscan platform)
T30 sequence (P29376 17-864): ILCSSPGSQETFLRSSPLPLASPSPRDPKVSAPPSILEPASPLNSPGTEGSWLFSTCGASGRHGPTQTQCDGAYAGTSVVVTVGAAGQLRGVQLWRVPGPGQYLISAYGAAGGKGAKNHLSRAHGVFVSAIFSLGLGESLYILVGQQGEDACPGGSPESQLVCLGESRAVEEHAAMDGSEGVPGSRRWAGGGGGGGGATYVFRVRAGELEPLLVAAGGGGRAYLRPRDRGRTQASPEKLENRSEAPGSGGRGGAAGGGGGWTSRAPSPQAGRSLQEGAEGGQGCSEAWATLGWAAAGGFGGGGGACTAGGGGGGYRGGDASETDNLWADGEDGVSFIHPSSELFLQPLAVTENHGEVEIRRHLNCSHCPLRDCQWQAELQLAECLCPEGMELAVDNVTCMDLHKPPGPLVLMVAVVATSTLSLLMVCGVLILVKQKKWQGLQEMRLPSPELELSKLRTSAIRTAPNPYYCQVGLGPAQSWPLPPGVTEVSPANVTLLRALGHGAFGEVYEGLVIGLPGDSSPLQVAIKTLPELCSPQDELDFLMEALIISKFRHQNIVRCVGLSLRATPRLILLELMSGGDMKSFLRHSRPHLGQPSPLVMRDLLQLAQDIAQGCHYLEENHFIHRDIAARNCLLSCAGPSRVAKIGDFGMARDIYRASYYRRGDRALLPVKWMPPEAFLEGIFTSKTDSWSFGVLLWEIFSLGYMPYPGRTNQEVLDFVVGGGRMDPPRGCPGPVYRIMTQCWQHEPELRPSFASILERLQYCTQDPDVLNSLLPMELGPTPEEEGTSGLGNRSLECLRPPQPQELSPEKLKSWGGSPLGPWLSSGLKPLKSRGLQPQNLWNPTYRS

hLATS1 = target: T31, hLATS1 (Homo sapiens, UniProt O95835); assay: KINOMEscan; assay type: binding
T31 construct: purchased DiscoverX (KINOMEscan platform)
T31 sequence (O95835 whole entry): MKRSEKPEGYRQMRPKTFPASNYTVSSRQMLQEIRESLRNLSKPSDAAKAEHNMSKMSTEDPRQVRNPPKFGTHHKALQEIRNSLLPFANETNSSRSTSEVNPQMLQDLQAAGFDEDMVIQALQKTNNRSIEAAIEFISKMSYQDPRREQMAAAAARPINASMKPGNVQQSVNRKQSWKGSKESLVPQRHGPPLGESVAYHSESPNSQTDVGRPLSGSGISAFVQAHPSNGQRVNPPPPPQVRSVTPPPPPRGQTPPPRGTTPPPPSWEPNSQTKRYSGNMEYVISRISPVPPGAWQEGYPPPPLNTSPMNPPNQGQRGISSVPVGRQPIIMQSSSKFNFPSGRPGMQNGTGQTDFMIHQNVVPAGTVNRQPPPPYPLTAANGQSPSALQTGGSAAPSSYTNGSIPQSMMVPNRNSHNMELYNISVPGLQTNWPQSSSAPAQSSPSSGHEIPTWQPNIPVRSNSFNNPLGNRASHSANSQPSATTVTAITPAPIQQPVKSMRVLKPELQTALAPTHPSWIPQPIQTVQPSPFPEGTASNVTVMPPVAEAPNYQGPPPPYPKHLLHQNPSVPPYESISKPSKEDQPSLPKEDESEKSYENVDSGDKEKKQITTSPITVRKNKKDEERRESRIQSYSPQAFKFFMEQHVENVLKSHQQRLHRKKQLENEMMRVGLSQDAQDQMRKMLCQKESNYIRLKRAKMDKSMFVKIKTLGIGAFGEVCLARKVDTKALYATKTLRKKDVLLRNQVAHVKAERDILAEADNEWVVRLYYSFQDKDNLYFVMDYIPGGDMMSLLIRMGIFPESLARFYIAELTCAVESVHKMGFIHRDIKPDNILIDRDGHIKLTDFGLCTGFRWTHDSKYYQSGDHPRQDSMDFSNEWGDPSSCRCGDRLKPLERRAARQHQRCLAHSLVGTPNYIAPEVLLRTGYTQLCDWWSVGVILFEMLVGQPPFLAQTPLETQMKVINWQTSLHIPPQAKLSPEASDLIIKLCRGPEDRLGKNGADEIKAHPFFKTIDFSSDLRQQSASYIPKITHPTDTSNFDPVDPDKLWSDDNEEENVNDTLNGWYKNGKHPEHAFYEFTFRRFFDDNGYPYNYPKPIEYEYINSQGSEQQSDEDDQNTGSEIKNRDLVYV

## Cc1cn(CCN2CCN(c3ccccc3-c3cc(C#N)cc(C(=O)NCCCN4CCCC4)c3)CC2)c2ccccc12 [LLY-507, 3-cyano-5-{2-[4-[2-(3-methylindol-1-yl)ethyl]piperazin-1-yl]-phenyl}-N-[(3-pyrrolidin-1-yl)propyl]benzamide]
[1]
  IC50: > 20 µM
hTAOK3
  IC50: > 20 µM
hABL1
  IC50: > 20 µM
hGAK
  IC50: > 20 µM
hMERTK
  IC50: > 20 µM
hFLT3(D835Y)
  IC50: > 20 µM
h5HT2B
  inhibition at 10 µM: 6.8%
hSTK39
  IC50: > 20 µM
hEGFR(E746-A750del)
  IC50: > 20 µM
hADRα1A
  inhibition at 10 µM: 98%
hWNK3
  IC50: > 20 µM
hIRAK1
  IC50: > 20 µM
hCSNK1G2
  IC50: > 20 µM
hALK(L1196M)
  IC50: > 20 µM
hQSK
  IC50: > 20 µM
hZAK
  IC50: > 20 µM
hIKK-alpha
  IC50: > 20 µM
hSGK
  IC50: > 20 µM
hCSNK2A2
  IC50: > 20 µM
hKIT(A829P)
  IC50: > 20 µM
hIRAK4
  IC50: > 20 µM
hFAK
  IC50: > 20 µM
hGSK3A
  IC50: > 20 µM
hMAP4K2
  IC50: > 20 µM
hEGFR(S752-I759del)
  IC50: > 20 µM
hLIMK2
  IC50: > 20 µM
hMEK4
  IC50: > 20 µM
hFER
  IC50: > 20 µM
hDDR1
  IC50: > 20 µM
hTNK2
  IC50: > 20 µM
hLTK
  IC50: > 20 µM
hLATS1
  IC50: > 20 µM

From publication PMC4447944 (The Journal of Biological Chemistry, 2015)
